Data as given in patent publication US8476197B2, “Aminopropenoates as fungicides” (priority 2009, dated 2013).
Where two headings read alike, the source gives them in different places. Marks after values point to notes of the source that are not given here.

| Compound | Log P (pH 2.7) | Log P (pH 7.5) |
| --- | --- | --- |
| CCOC(=O)C(C#N)=C(NC(C)c1nccs1)c1cc(Cl)sc1Cl (racemic) [Compound 221] | 3.65^[a] |  |
| CCOC(=O)C(C#N)=C(NC(C)c1ccccn1)c1cc(Cl)sc1Cl (racemic) [Compound 222] | 2.41^[a] |  |
| CCOC(=O)C(C#N)=C(NC(C)c1nccs1)c1cnc(Cl)cc1Cl (racemic) [Compound 223] | 3^[a] |  |
| CCOC(=O)C(C#N)=C(NC(C)c1nccs1)c1ncccc1Br (racemic) [Compound 224] | 2.53^[a] |  |
| CCOC(=O)C(C#N)=C(NC(C)c1nccs1)c1ncc(Cl)cc1Cl (racemic) [Compound 225] | 3.11^[a] |  |
| CCOC(=O)C(C#N)=C(NC(C)c1nccs1)c1cn(C)nc1OC (racemic) [Compound 229] | 2.26^[a] |  |
| CCOC(=O)C(C#N)=C(NC1CCOC1=O)c1cccnc1Cl (racemic) [Compound 231] |  | 1.77 |
| CCOC(=O)C(C#N)=C(NC(C)c1nccs1)c1cccnc1C(F)(F)F (racemic) [Compound 232] | 2.9^[a] |  |
| CCOC(=O)C(C#N)=C(NC(C)c1ccccn1)c1cccnc1C(F)(F)F (racemic) [Compound 233] | 2.88^[a] |  |
| CCOC(=O)C(C#N)=C(NC(C)c1nccs1)c1c(C(F)F)nn(C)c1Cl (racemic) [Compound 234] | 2.77^[a] |  |
| CCOC(=O)C(C#N)=C(NC(C)c1nc(C)c(C)s1)c1c(C(F)F)nn(C)c1Cl (racemic) [Compound 235] | 3.37^[a] |  |
| CCOC(=O)C(C#N)=C(NC(C)Cc1c[nH]c2ccccc12)c1c(C(F)F)nn(C)c1Cl (racemic) [Compound 237] | 3.42^[a] |  |
| C=Cc1nn(C)cc1C(NC(C)c1nccs1)=C(C#N)C(=O)OCC (racemic) [Compound 238] | 2.3^[a] |  |
| CCOC(=O)C(C#N)=C(NC(C)c1nccs1)c1nc(SC)ncc1Br (racemic) [Compound 240] | 3.21^[a] |  |
| CCOC(=O)C(C#N)=C(NC(C)c1nccs1)c1sc(Cl)nc1Cl (racemic) [Compound 242] | 3.27^[a] |  |
| CCOC(=O)C(C#N)=C(NC(C)c1cccs1)c1ccsc1Br (racemic) [Compound 250] | 3.99^[a] |  |
| CCOC(=O)C(C#N)=C(NC(C)c1nccs1)c1cc(Cl)ncc1Cl (racemic) [Compound 252] | 3.15^[a] |  |
| CCOC(=O)C(C#N)=C(NC(C)c1nc(C(C)C)no1)c1cc(Cl)ncc1Cl (racemic) [Compound 253] | 2.2[a] |  |
| CCOC(=O)C(C#N)=C(NC(C)c1nc(C(F)(F)F)no1)c1cc(Cl)ncc1Cl (racemic) [Compound 254] | 3.83^[a] |  |
| CCOC(=O)C(C#N)=C(NC(C)c1nn(C)c(=O)n1C)c1cc(Cl)ncc1Cl (racemic) [Compound 255] | 3.76^[a] |  |
| CCOC(=O)C(C#N)=C(NC(C)c1nccs1)c1cnccc1C(F)(F)F (racemic) [Compound 256] | 2.7^[a] |  |
| CCOC(=O)C(C#N)=C(NC(C)c1nccs1)c1cnccc1Br (racemic) [Compound 257] | 2.88^[a] |  |
| CCOC(=O)C(C#N)=C(NC(C)c1nccs1)c1cnccc1Cl (racemic) [Compound 258] | 2.78^[a] |  |
| CCOC(=O)C(C#N)=C(NC(C)c1ccccn1)c1ccncc1Cl (racemic) [Compound 260] | 2.54^[a] |  |
| CCOC(=O)C(C#N)=C(NC(C)c1sc(C)nc1C)c1ccsc1Br (racemic) [Compound 261] | 2.9^[a] |  |
| CCOC(=O)C(C#N)=C(NC(C)c1ccn(C)n1)c1cccnc1C(F)F (racemic) [Compound 263] | 2.18^[a] |  |
| CCOC(=O)C(C#N)=C(NC(C)c1ccccn1)c1cccnc1C(F)F (racemic) [Compound 264] | 2.46^[a] |  |

| Compound | Log P (pH 2.7) | Log P (pH 7.5) |
| --- | --- | --- |
| CCOC(=O)C(C#N)=C(NC(C)c1nccs1)c1cc(Cl)cc(Cl)n1 (racemic) [Compound 265] | 3.31^[a] |  |
| CCOC(=O)C(C#N)=C(NC(C)c1nccs1)c1cccnc1C(F)F (racemic) [Compound 266] | 2.39^[a] |  |
| C#CCOC(=O)C(C#N)=C(NC(C)c1nccs1)c1cccnc1Cl (racemic) [Compound 267] |  | 2.26 |
| CC(NC(=C(C#N)C(=O)OC1CCC1)c1cccnc1Cl)c1nccs1 (racemic) [Compound 268] |  | 2.88 |
| CNC(=O)C(C#N)=C(NC(C)c1nccs1)c1cccnc1Cl (racemic) [Compound 269] |  | 1.69 |
| CCOC(=O)C(C#N)=C(NC(C)c1ccccn1)c1cn(C)cc1C(F)(F)F (racemic) [Compound 270] | 2.92^[a] |  |
| CCOC(=O)C(C#N)=C(NC(C)c1nccs1)c1cn(C)cc1C(F)(F)F (racemic) [Compound 271] | 2.97^[a] |  |
| CCOC(=O)C(C#N)=C(NC(C)CN1CCCCC1)c1cccnc1Cl (racemic) [Compound 273] | 1.2^[a] |  |
| CCOC(=O)C(C#N)=C(NC(C)CN1CCOCC1)c1cccnc1Cl (racemic) [Compound 274] | 1.3^[a] |  |
| CCOC(=O)C(C#N)=C(NC(C)c1cscn1)c1cccnc1Cl (racemic) [Compound 275] | 2.4^[a] |  |
| CCOC(=O)C(C#N)=C(NC(C)c1ccn(C)n1)c1cccnc1Cl (racemic) [Compound 276] | 2.3^[a] |  |
| CCOC(=O)C(C#N)=C(NC(C)c1c(C)nn(C)c1C)c1cccnc1Cl (racemic) [Compound 277] | 2.3^[a] |  |
| CCOC(=O)C(C#N)=C(NC(C)Cn1cccn1)c1cccnc1Cl (racemic) [Compound 278] | 2.23^[a] |  |
| CCOC(=O)C(C#N)=C(NC(C)c1nc2ccccc2[nH]1)c1cccnc1Cl (racemic) [Compound 279] | 2^[a] |  |
| CCOC(=O)C(C#N)=C(NC(C)c1c(C)sc2c1CCCC2)c1cccnc1Cl (racemic) [Compound 280] | 4.4^[a] |  |
| CCOC(=O)C(C#N)=C(NC(C)c1ccc(Cl)cc1)c1cc(Cl)sc1Cl (racemic) [Compound 499] | 4.96^[a] |  |
| CCOC(=O)C(C#N)=C(NC(C)c1ccc(Cl)cc1)c1cn(C)nc1OC (racemic) [Compound 506] | 3.51^[a] |  |
| CCOC(=O)C(C#N)=C(Nc1ccccc1SC)c1cn(C)nc1C(C)F (racemic) [Compound 521] | 3.15^[a] |  |
| CCOC(=O)C(C#N)=C(NC(C)c1ccc(Cl)cc1)c1sc(Cl)nc1Cl (racemic) [Compound 526] | 4.54^[a] |  |
| CCOC(=O)C(C#N)=C(NC(C)c1ccc(F)cc1)c1ccsc1Br (racemic) [Compound 531] | 3.89^[a] |  |
| CCOC(=O)C(C#N)=C(NC(C)CCc1ccccc1)c1ccsc1Br (racemic) [Compound 538] | 4.56^[a] |  |
| CCOC(=O)C(C#N)=C(NC(C)c1ccc(Cl)cc1)c1ccncc1Cl (racemic) [Compound 541] | 3.78^[a] |  |
| CCOC(=O)C(C#N)=C(NC(C)c1ccc(Cl)cc1)c1cn(C)cc1C(F)(F)F (racemic) [Compound 542] | 4.2^[a] |  |
| CCOC(=O)C(C#N)=C(NC(C)c1ccc(Cl)cc1)c1ccnc(Cl)c1Cl (racemic) [Compound 544] | 4.21^[a] |  |
| CCOC(=O)C(C#N)=C(NCC(c1ccccc1)C(C)C)c1cccnc1Cl (racemic) [Compound 545] | 4.21^[a] |  |
| CCOC(=O)C(C#N)=C(NC(C)c1ccc(Cl)cc1)c1ccncc1F (racemic) [Compound 546] | 3.48^[a] |  |
| CCOC(=O)C(C#N)=C(NC1(c2c(F)cccc2F)CC1)c1cn(C)nc1C(C)F (racemic) [Compound 549] | 3.23^[a] |  |
